The numbers were not newly measured in patent publication US20060186374A1, “Hydrophobic propellant gas mixtures for producing insulating foams” (priority 2003, published 2006), which cites them from elsewhere.

SMILES strings stand for the structures.

The conditions of the data set: octanol/water, decadic logarithm.
Take `COC` [DME, dimethyl ether]: the “log PO/W” value is 0.1.
As to `CCC` [Propane, propane], the “log PO/W” value was 2.3.
Turning to `FCC(F)(F)F` [R134a, 1,1,1,2-tetrafluoroethane], the “log PO/W” value is on record as 1.06.
For `CC(F)F` [R152a, 1,1-difluoroethane], the “log PO/W” value is on record as 0.75.
Turning to `FC(C(F)(F)F)C(F)(F)F` [R227ea, 1,1,1,2,3,3,3-heptafluoropropane], the “log PO/W” value is reported as 2.5.
`FC(F)CC(F)(F)F` [R245fa, 1,1,1,3,3-pentafluoropropane]: the “log PO/W” value was 1.35.
Take `CC(F)(F)CC(F)(F)F` [R365mfc, 1,1,1,3,3-pentafluorobutane]: the “log PO/W” value is 1.6.
In the case of `CC(C)C` [i-butane], the “log PO/W” value is listed as 2.8.
